Source: PMC7769672, “Skin-Related Properties and Constituents from the Aerial Parts Extract of Persicaria senticosa” (Oxidative Medicine and Cellular Longevity, 2020)
“And” between values parts separate entries of the source, which are not always exact repeats. Identical values can stand only once. Like-named read-outs stand apart in the source and are kept apart here.

Key:
mushroom tyrosinase = assay: Tyrosinase inhibition assay; assay type: biochemical; conditions: for IC50: Table 3, isolated compounds
Experimental: Tyrosinase inhibitory activity was measured by using the method described by Yagi et al.. The reaction was carried out in 0.1 M potassium phosphate buffer (pH 6.5) containing 1.5 mM L-tyrosine and 1250 units/mL mushroom tyrosinase. The reaction mixture was incubated at 37°C for 20 min. The test samples were assayed for tyrosinase inhibition by measuring its effect on tyrosinase activity using SpectraMax 190PC microplate ELISA reader at 490 nm.

[1] = DPPH radical scavenging activity assay; conditions: for IC50: Table 3, isolated compounds; for DPPH radical scavenging activity (in words): Figure 4
Experimental: DPPH radical scavenging activity was measured by using the method described by Blois and Ozgen et al.. DPPH solution dissolved in methanol was added to the sample, which was diluted to the required concentration, and the reaction was carried out at room temperature for 30 min. Absorbance was measured at 517 nm using an ELISA reader. The antioxidant butylated hydroxyanisole (BHA) was used as a positive control, and the IC50 value of the sample was determined.

[2] = ABTS radical scavenging activity
Experimental: ABTS radical scavenging activity was measured by using a previously described method. ABTS+ was formed by mixing 7 mM ABTS solution and 2.45 mM potassium persulfate (K2S2O8) solution with ABTS: K2S2O8 (2 : 1 ratio) for 12–16 h to form a cation (ABTS^+). The absorbance was measured at 734 nm using an ELISA reader. BHA, an antioxidant, was used as the positive control.

RAW 264.7 cells [3] = assay: NO assay (nitrite by Griess reagent in LPS-stimulated cells); assay type: cell-based, murine
Experimental: RAW 264.7 cells were seeded in 96-well plates (5 × 10^4 cells/well) and were treated with sample for 1 h prior to LPS (1 μg/mL) stimulation for 24 h. The negative control was treated with serum-free media. The amount of nitrite, a stable metabolite of NO, was measured by using Griess reagent (1% sulfanilamide and 0.1% naphthylethylenediamine dihydrochloride in 2.5% phosphoric acid). Absorbance was subsequently measured at 540 nm using an ELISA reader. The quantity of nitrite was determined from a standard curve for sodium nitrite.

RAW 264.7 cells [4] = assay: Cell cytotoxicity assay (MTT); assay type: cell-based, murine; conditions: Mus musculus, RAW264.7
Experimental: RAW 264.7 cells were plated at a density of 5 × 10^4 cells/well in 96-well plates. Cells were treated with samples for 1 h prior to LPS (1 μg/mL) stimulation for 24 h. MTT (5 mg/mL in PBS) was added to each well and incubated for 2 hr. The medium was removed from the wells by aspiration, DMSO was added to each well, and the plate was shaken. The absorbance of each well was measured at a wavelength of 540 nm using an ELISA reader. Data are presented as the mean ± standard deviation of three replicates.

elastase = elastase (Sus scrofa, UniProt P00772); assay: Elastase inhibition assay; assay type: biochemical
Experimental: The reaction was carried out in 0.5 mM Tris buffer (pH 8.5) containing 1 mg/mL N-succinyl-(Ala)3-p-nitroanilide and 0.6 unit/mL elastase. The reaction mixture was incubated at 25°C for 10 min. The test samples were assayed for elastase inhibition by measuring its effect on elastase activity using an ELISA reader at 405 nm. Ursolic acid was used as a positive control, and the IC50 value of the sample was determined.

[5] = Mus musculus, RAW264.7, Table 3, isolated compounds, read-out: NO assay IC50
[6] = Table 3, isolated compounds, read-out: MTT assay IC50
[7] = Table 3, isolated compounds, read-out: Elastase inhibition assay IC50

Sequence of elastase (P00772 27-266): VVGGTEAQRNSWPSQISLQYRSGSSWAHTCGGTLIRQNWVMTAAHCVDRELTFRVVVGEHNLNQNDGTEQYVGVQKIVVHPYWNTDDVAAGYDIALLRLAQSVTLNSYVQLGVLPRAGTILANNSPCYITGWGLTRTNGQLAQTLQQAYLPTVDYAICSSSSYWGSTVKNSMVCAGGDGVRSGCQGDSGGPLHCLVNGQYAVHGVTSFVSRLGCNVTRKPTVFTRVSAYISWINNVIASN

| SMILES | IC50 [1] | IC50 (RAW 264.7 cells [3]; [5]) [µM] | IC50 (RAW 264.7 cells [4]; [6]) [µM] | IC50 (mushroom tyrosinase) [µM] | IC50 (elastase; [7]) [µM] | further results |
| --- | --- | --- | --- | --- | --- | --- |
| OC[C@H]1O[C@@H](Oc2ccc(O)cc2)[C@H](O)[C@@H](O)[C@@H]1O [Arbutin, reference compound] | – | – | – | – | – | Whitening Tyrosinase assay (IC50) (mushroom tyrosinase; Table 1, methanol extracts, L-tyrosine substrate): Arbutin 135.0 ± 19.9 μg/mL |
| COc1ccc(O)c(C(C)(C)C)c1 [BHA, butylated hydroxyanisole, reference compound] | 272 µM | – | – | – | – | Antioxidant DPPH (IC50) ([1]; Table 1, methanol extracts, 30 min, 517 nm): BHA 15.6 ± 0.2 μg/mL; Antioxidant DPPH ([1]; Table 2, fractions): BHA 14.58 ± 0.06 μg/mL; Antioxidant ABTS (IC50) ([2]; Table 1, methanol extracts, 734 nm): BHA 2.9 ± 0.1 μg/mL; Antioxidant ABTS ([2]; Table 2, fractions): BHA 4.03 ± 0.05 μg/mL |
| CC1(C)C[C@H](O)C[C@@]2(C)OC(=O)C=C12 [Compound 1, loliolide] | > 1000 µM | > 100 | > 100 | > 100 | > 1000 | – |
| O=c1c(O[C@@H]2O[C@H](CO)[C@@H](O)[C@H](O)[C@H]2O)c(-c2ccc(O)c(O)c2)oc2cc(O)cc(O)c12 [Compound 2, quercetin-3-O-glucoside] | 39.6 µM and 39.4 µM | > 100 | > 100 | > 100 | > 1000 | DPPH radical scavenging activity (in words) [1]: excellent antioxidant activity; IC50 ([1]; listed as Comp. 2): 39.6 ± 4.1 µM |
| O=C(O)C1OC(Oc2c(-c3ccc(O)c(O)c3)oc3cc(O)cc(O)c3c2=O)C(O)C(O)C1O (stereo not drawn) [Compound 3, quercetin-3-O-glucuronide] | 31.2 µM | > 100 | > 100 | > 100 | > 1000 | IC50 ([1]; listed as Comp. 3): 31.2 ± 0.47 µM |
| COc1ccc(/C=C/C(=O)OC(C(=O)O)C(O)C(=O)O)cc1O (stereo not drawn) [Compound 4, 4-methoxy caftraric acid] | > 1000 µM | > 100 | 84.6 ± 9.85 | > 100 | > 1000 | – |
| COC(=O)C1OC(Oc2c(-c3ccc(O)cc3)oc3cc(O)cc(O)c3c2=O)C(O)C(O)C1O (stereo not drawn) [Compound 5, kaempferol-3-(6-methylglucuronide)] | 37 µM | > 100 | > 100 | > 100 | > 1000 | DPPH radical scavenging activity (in words) [1]: excellent antioxidant activity; IC50 ([1]; listed as Comp. 5): 36.99 ± 0.16 µM |
| COC(=O)C1OC(Oc2c(-c3ccc(O)c(O)c3)oc3cc(O)cc(O)c3c2=O)C(O)C(O)C1O (stereo not drawn) [Compound 6, quercetin-3-(6-methylglucuronide)] | > 1000 µM | > 100 | > 100 | > 100 | > 1000 | – |
| O=c1c(O)c(-c2ccc(O)c(O)c2)oc2cc(O)cc(O)c12 [Compound 7, quercetin] | 22.7 µM | 29.7 | > 100 | – | – | IC50 (RAW 264.7 cells [3]; Table 3, isolated compounds, listed as Comp. 7, read-out: NO assay IC50): 29.7 ± 7.07 µM; IC50 ([1]; listed as Comp. 7): 22.7 ± 0.53 µM |
| [H]/N=C(/NC)NCCC[C@H](N)C(=O)O [L-NMMA, reference compound] | – | 14.6 | > 100 | – | – | IC50 (RAW 264.7 cells [3]; Mus musculus, RAW264.7, Table 2 positive control, read-out: Anti-inflammatory NO, positive control): 37.6 µM; IC50 (RAW 264.7 cells [3]; Mus musculus, RAW264.7, Table 1 positive control, read-out: Anti-inflammatory NO (IC50), positive control): 36.3 µM; IC50 (RAW 264.7 cells [4]; Table 1 positive control, read-out: Anti-inflammatory MTT, positive control): > 100 µM |
| C[C@H]1[C@H](C)CC[C@]2(C(=O)O)CC[C@]3(C)C(=CC[C@@H]4[C@@]5(C)CC[C@H](O)C(C)(C)[C@@H]5CC[C@]43C)[C@H]12 [Ursolic acid, reference compound] | – | – | – | – | 86.3 | IC50 (elastase; Table 1, methanol extracts, read-out: Anti-wrinkle Elastase assay (IC50)): 116 µM; IC50 (elastase; Table 2, fractions, unit inferred, read-out: Antiwrinkle Elastase assay): 85.3 µM |
